Each compound was assayed against Serotonin 5HT7 receptors (Homo sapiens (Human), UniProt P34969) (assay: Radiolabel Binding Studies for Serotonin 5HT7 receptors). Conditions: read-out: 5-HT7 % inhib @ 10 uM.
Description: Radiolabel Binding Studies for Serotonin 5HT7 Receptors, Method 1:
Eleven dilutions (5× assay concentration) of the compound of the disclosure and chlorpromazine are prepared in the Assay Buffer by serial dilution to yield final corresponding assay concentrations ranging from 10 pM to 10 μM.
A stock concentration of 5 nM [^3H]LSD (lysergic acid diethyl amide) is prepared in 50 mM Tris-HCl, 10 mM MgCl2, 1 mM EDTA, pH 7.4 (Assay Buffer). Aliquots (50 μl) of radioligand are dispensed into the wells of a 96-well plate containing 100 μl of Assay Buffer. Duplicate 50-μl aliquots of the compound of the disclosure test and chlorpromazine positive control reference compound serial dilutions are added.
Membrane fractions of cells expressing recombinant 5HT7 receptors (50 μL) are dispensed into each well. The membranes are prepared from stably transfected cell lines expressing 5HT7 receptors cultured on 10-cm plates by harvesting PBS-rinsed monolayers, resuspending and lysing in chilled, hypotonic 50 mM Tris-HCl, pH 7.4, centrifuging at 20,000×g, decanting the supernatant and storing at −80° C.; the membrane preparations are resuspended in 3 ml of chilled Assay Buffer and homogenized by several passages through a 26 gauge needle before using in the assay.
The 250-μl reactions are incubated at room temperature for 1.5 hours, then harvested by rapid filtration onto 0.3% polyethyleneimine-treated, 96-well filter mats using a 96-well Filtermate harvester. Four rapid 500-μl washes are performed with chilled Assay Buffer to reduce non-specific binding. The filter mats are dried, then scintillant is added to the filters and the radioactivity retained on the filters is counted in a Microbeta scintillation counter.
Raw data (dpm) representing total radioligand binding (i.e., specific+non-specific binding) are plotted as a function of the logarithm of the molar concentration of the competitor (i.e., test or reference compound).
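Further: displacement of a tritiated radioligand from membranes of stably transfected cells carrying recombinant 5-HT7 receptor, with filter-bound radioactivity measured by scintillation counting.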

Sequence of Serotonin 5HT7 receptors (P34969 whole entry): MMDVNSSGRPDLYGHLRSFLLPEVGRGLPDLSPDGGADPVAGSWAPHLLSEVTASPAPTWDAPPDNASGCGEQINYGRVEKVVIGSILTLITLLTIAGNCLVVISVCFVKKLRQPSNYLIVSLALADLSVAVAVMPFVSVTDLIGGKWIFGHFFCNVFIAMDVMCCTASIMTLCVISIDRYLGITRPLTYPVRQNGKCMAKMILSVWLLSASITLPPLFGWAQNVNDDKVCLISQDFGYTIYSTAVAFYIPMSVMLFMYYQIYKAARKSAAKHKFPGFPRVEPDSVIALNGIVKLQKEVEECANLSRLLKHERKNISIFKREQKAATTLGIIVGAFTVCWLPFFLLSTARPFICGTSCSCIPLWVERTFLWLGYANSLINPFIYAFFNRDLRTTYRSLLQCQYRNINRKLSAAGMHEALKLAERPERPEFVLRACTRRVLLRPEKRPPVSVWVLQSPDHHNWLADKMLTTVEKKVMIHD

| inhibition at 10 µM [%] | SMILES |
| --- | --- |
| 95.9 | CCC1(CC)CC(CCN2CCN(c3ccc(O)cc3)CC2)OC1=O (stereo not shown) [Entry 1] |
| 93.3 | CCC1(CC)CC(CCN2CCN(c3ccc([N+](=O)[O-])cc3)CC2)OC1=O (stereo not shown) [Entry 2] |
| 88.4 | CCC1(CC)CC(CCN2CCN(c3ccc(C#N)cc3)CC2)OC1=O (stereo not shown) [Entry 3] |
| 96.6 | CCC1(CC)CC(CCN2CCN(c3ccc(C)cc3)CC2)OC1=O (stereo not shown) [Entry 4] |
| 53.1 | CCC1(CC)CC(CCN2CCN(CCc3ccccc3)CC2)OC1=O (stereo not shown) [Entry 5] |
| 99.9 | CCC1(CC)CC(CCN2CCN(c3ccccc3O)CC2)OC1=O (stereo not shown) [Entry 6] |
| 94.8 | CCC1(CC)CC(CCN2CCN(c3cccc(OC)c3)CC2)OC1=O (stereo not shown) [Entry 7] |
| 93.6 | CCC1(CC)CC(CCN2CCN(c3cccc(O)c3)CC2)OC1=O (stereo not shown) [Entry 8] |
| 101 | CCC1(CC)CC(CCN2CCN(c3ccccn3)CC2)OC1=O (stereo not shown) [Entry 9] |
| 70.4 | CCC1(CC)CC(CCN2CCN(c3c(C)cccc3C)CC2)OC1=O (stereo not shown) [Entry 10] |
| 95.4 | CCC1(CC)CC(CCN2CCN(c3ccccc3)CC2)OC1=O (stereo not shown) [Entry 11] |
| 80.9 | CCC1(CC)CC(CCN2CCN(c3ccc(N)cc3)CC2)OC1=O (stereo not shown) [Entry 12] |
| 82.5 | CCC1(CC)CC(CCN2CCN(C3CCCCC3)CC2)OC1=O (stereo not shown) [Entry 13] |
| 54.3 | CCC1(CC)CC(CCN2CCN(c3ccccc3C(C)C)CC2)OC1=O (stereo not shown) [Entry 14] |
| 58.4 | CCC1(CC)CC(CCN2CCN(C(c3ccccc3)c3ccccc3)CC2)OC1=O (stereo not shown) [Entry 15] |
| 58.2 | CCC1(CC)CC(CCN2CCN(c3ccccc3C)CC2)OC1=O (stereo not shown) [Entry 16] |
| 56.2 | CCC1(CC)CC(CCN2CCN(c3ccc(C)cc3C)CC2)OC1=O (stereo not shown) [Entry 17] |
| 82 | CCC1(CC)CC(CCN2CCc3ccccc3C2)OC1=O (stereo not shown) [Entry 18] |
| 78.1 | COc1ccc(N2CCN(CCC3CC4(CCCCC4)C(=O)O3)CC2)cc1 (stereo not shown) [Entry 20] |
| 86.8 | O=C1OC(CCN2CCN(c3cccc(O)c3)CC2)CC12CCCCC2 (stereo not shown) [Entry 21] |
| 98 | O=C1OC(CCN2CCN(c3ccccc3)CC2)CC12CCCCC2 (stereo not shown) [Entry 22] |
| 93.7 | COc1cccc(N2CCN(CCC3CC4(CCCCC4)C(=O)O3)CC2)c1 (stereo not shown) [Entry 23] |
| 90.7 | COc1ccccc1N1CCN(CCC2CC3(CCCCC3)C(=O)O2)CC1 (stereo not shown) [Entry 24] |

| inhibition at 10 µM [%] | SMILES |
| --- | --- |
| 93.3 | O=C1OC(CCN2CCN(c3ccccc3O)CC2)CC12CCCCC2 (stereo not shown) [Entry 25] |
| 97.4 | O=C1OC(CCN2CCN(c3ccccn3)CC2)CC12CCCCC2 (stereo not shown) [Entry 26] |
| 97 | O=C1OC(CCN2CCN(c3ccccc3Cl)CC2)CC12CCCCC2 (stereo not shown) [Entry 27] |
| 98 | O=C1OC(CCN2CCN(c3ccc(Cl)cc3)CC2)CC12CCCCC2 (stereo not shown) [Entry 28] |
| 96 | O=C1OC(CCN2CCN(c3ccc(C(F)(F)F)cc3)CC2)CC12CCCCC2 (stereo not shown) [Entry 29] |
| 46.5 | O=C1OC(CCN2CCN(c3ccncc3)CC2)CC12CCCCC2 (stereo not shown) [Entry 30] |
| 54.1 | O=C1OC(CCN2CCN(c3ccc(O)cc3)CC2)CC12CCCCC2 (stereo not shown) [Entry 31] |
| 76.3 | O=C1OC(CCN2CCN(c3cccnc3)CC2)CC12CCCCC2 (stereo not shown) [Entry 32] |
| 83.4 | N#Cc1ccc(N2CCN(CCC3CC4(CCCCC4)C(=O)O3)CC2)cc1 (stereo not shown) [Entry 33] |
| 64.2 | N#Cc1ccc(N2CCN(CCC3CC4(CCCCC4)C(=O)O3)CC2)nc1 (stereo not shown) [Entry 34] |
| 91.1 | O=C1OC(CCN2CCN(c3ccc(C(F)(F)F)cn3)CC2)CC12CCCCC2 (stereo not shown) [Entry 35] |
| 69 | CCC1(CC)CC(CCN2CCC(C(O)(c3ccccc3)c3ccccc3)CC2)OC1=O (stereo not shown) [Entry 37] |
| 96.5 | CCC1(CC)CC(CCN2CCC(=C(c3ccccc3)c3ccccc3)CC2)OC1=O (stereo not shown) [Entry 38] |
| 96.1 | CC(C)c1ccccc1N1CCN(CCC2CC3(CCCC3)C(=O)O2)CC1 (stereo not shown) [Entry 39] |
| 81.7 | CC(C)(C)c1ccccc1N1CCN(CCC2CC3(CCCC3)C(=O)O2)CC1 (stereo not shown) [Entry 40] |
| 25.2 | CC(C)c1cccc(C(C)C)c1N1CCN(CCC2CC3(CCCC3)C(=O)O2)CC1 (stereo not shown) [Entry 41] |
| 97.2 | O=C1OC(CCN2CCN(c3ccccc3N3CCOCC3)CC2)CC12CCCC2 (stereo not shown) [Entry 42] |
| 95.3 | CCC1(CC)CC(CCN2CCN(c3ccccc3OC)CC2)OC1=O (stereo not shown) [Entry 43] |
| 40.8 | Cc1ccc(N2CCN(CC3CC(c4ccccc4)(c4ccccc4)C(=O)O3)CC2)cc1 (stereo not shown) [Entry 44] |
| 97.4 | Cc1ccc(N2CCN(CCC3CC(c4ccccc4)(c4ccccc4)C(=O)O3)CC2)cc1 (stereo not shown) [Entry 45] |
| 96.8 | Cc1ccc(N2CCN(CCCC3CC(c4ccccc4)(c4ccccc4)C(=O)O3)CC2)cc1 (stereo not shown) [Entry 46] |
| 29.3 | CCC1(CC)CC(CCN2CCC(c3ccccc3)CC2)OC1=O (stereo not shown) [Entry 47] |

| SMILES | inhibition at 10 µM [%] |
| --- | --- |
| O=C1OC(CCN2CCN(c3ccc(Cl)cn3)CC2)CC12CCCCC2 (stereo not shown) [Entry 36] | 96.7 |

From patent publication US10239868B2, “5-hydroxytryptamine receptor 7 activity modulators and their method of use” (TEMPLE UNIVERSITY OF THE COMMONWEALTH SYSTEM OF HIGHER …, priority 2013, dated 2019)
